The record followed here is ChEMBL document CHEMBL1136584, “Synthesis and preliminary biological evaluation of 6-O-[11C]-[(methoxymethyl)benzyl]guanines, new potential PET breast cancer imaging agents for the DNA repair protein AGT” (Bioorg Med Chem Lett, 2003).

Molecules are shown by their SMILES.

Assay [1] deals with T1, Methylated-DNA--protein-cysteine methyltransferase (Homo sapiens) (UniProt P16455).
T1 sequence (whole entry): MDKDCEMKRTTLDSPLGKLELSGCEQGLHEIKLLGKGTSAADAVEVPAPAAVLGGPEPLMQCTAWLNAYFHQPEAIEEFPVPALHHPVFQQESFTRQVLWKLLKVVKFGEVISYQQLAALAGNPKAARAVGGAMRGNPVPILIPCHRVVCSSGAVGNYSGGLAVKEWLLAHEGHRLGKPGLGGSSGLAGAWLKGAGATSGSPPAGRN
The assay is described as follows: In vitro inhibitory activity of compound against AGT (O6-alkylguanine-DNA alkyltransferase) at a concentration of 0.1 uM using breast cancer MCF cells, expressed as Fmol O6-MeG removed/mg of protein. It is filed as cell-based.

Assay [2] deals with T1, Methylated-DNA--protein-cysteine methyltransferase (Homo sapiens). The assay can be described thus: In vitro inhibitory activity of compound against AGT (O6-alkylguanine-DNA alkyltransferase) at a concentration of 10 uM using breast cancer MCF cells, expressed as Fmol O6-MeG removed/mg of protein. It is filed as cell-based.
For assay [3] the target is unchanged. The assay can be described thus: In vitro inhibitory activity of compound against AGT (O6-alkylguanine-DNA alkyltransferase) at a concentration of 50 uM using breast cancer MCF cells, expressed as Fmol O6-MeG removed/mg of protein. It counts as cell-based.
The target is the same in assay [4]. The assay is described as follows: In vitro inhibitory activity of compound against AGT (O6-alkylguanine-DNA alkyltransferase) at a concentration of 1 uM using breast cancer MCF cells, expressed as Fmol O6-MeG removed/mg of protein. It counts as cell-based.
For assay [5] the target is unchanged. Particulars: MCF7; 10 uM.
Description: In vitro inhibitory activity of compound against AGT (O6-alkylguanine-DNA alkyltransferase) at a concentration of 10 uM using breast cancer MCF-7 cells, expressed as Fmol O6-MeG removed/mg of protein
The target is the same in assay [6]. Particulars: MCF7; 50 uM.
Description: In vitro inhibitory activity of compound against AGT (O6-alkylguanine-DNA alkyltransferase) at a concentration of 50 uM using breast cancer MCF-7 cells, expressed as Fmol O6-MeG removed/mg of protein
Assay [7] has the same target. Particulars: MCF7; 0.1 uM.
Description: In vitro inhibitory activity of compound against AGT (O6-alkylguanine-DNA alkyltransferase) at a concentration of 0.1 uM using breast cancer MCF-7 cells, expressed as Fmol O6-MeG removed/mg of protein
Assay [8] has the same target. To be noted: MCF7; 1 uM.
Description: In vitro inhibitory activity of compound against AGT (O6-alkylguanine-DNA alkyltransferase) at a concentration of 1 uM using breast cancer MCF-7 cells, expressed as Fmol O6-MeG removed/mg of protein

Regarding `COCc1ccccc1COc1[nH]c(N)nc2ncnc1-2`, the Activity ((fM of O6-MeG removed) (mg of protein)-1) is 2340 in assay [1], 2490 in assay [2], 660 in assay [3] and 2300 in assay [4].

Consider `Nc1nc(OCc2ccccc2)c2nc[nH]c2n1`, for which the Activity ((fM of O6-MeG removed) (mg of protein)-1) in assay [5] turned out to be 50; in assay [6], 19; in assay [7], 2390; in assay [8], 164.

`COCc1cccc(COc2[nH]c(N)nc3ncnc2-3)c1`: the Activity ((fM of O6-MeG removed) (mg of protein)-1) in assay [1] stood at 1640; in assay [2] it was 21; in assay [3] it was 15; in assay [4], 1140.

`COCc1ccc(COc2[nH]c(N)nc3ncnc2-3)cc1`: the Activity ((fM of O6-MeG removed) (mg of protein)-1) in assay [1] was 457; in assay [2], 35; in assay [3], 58; in assay [4], 292.
